# Reference: EP0368158A1, “Imidazo pyridines” (Byk Gulden Lomberg Chemische Fabrik GmbH, priority 1988, dated 1990)
# Test system: durch Pentagastrin stimulierte Säuresekretion des perfundierten Rattenmagens
# Assay: Inhibition of pentagastrin-stimulated acid secretion in the perfused rat stomach in vivo
# Design: species or system Ratte
# Description: Prüfung der sekretionshemmenden Wirkung am perfundierten Rattenmagen
# In der folgenden Tabelle 2 ist der Einfluß der erfindungsgemäßen Verbindungen nach intravenöser Gabe auf die durch Pentagastrin stimulierte Säuresekretion des perfundierten Rattenmagens in vivo dargestellt.
# Narkotisierten Ratten (CD-Ratte, weiblich, 200-250 g; 1,5 g/kg i.m. Urethan) wurde nach Tracheotomie das Abdomen durch einen medianen Oberbauchschnitt er-öffnet und ein PVC-Katheter transoral im Ösophagus sowie ein weiterer via Pylorus derart fixiert, daß die Schlauchenden eben noch in das Magenlumen hineinragten. Der aus dem Pylorus führende Katheter führte über eine seitliche Öffnung in der rechten Bauchwand nach außen.
# Nach gründlicher Spülung (ca.50-100 ml) wurde der Magen mit 37 °C warmer physiologischer NaCl-Lösung kontinuierlich durchströmt (0,5 ml/min, pH 6,8-6,9; Braun-Unita I). In dem jeweils im 15 min-Abstand aufgefangenen (25 ml Meßzylinder) Effluat wurde der pH-Wert (pH-Meter 632, Glaselektrode EA 147; ⌀ = 5 mm, Metrohm) sowie durch Titration mit einer frisch zubereiteten 0,01 N NaOH bis pH 7 (Dosimat 655 Metrohm) die sezernierte HCl bestimmt.
# Die Stimulation der Magensekretion erfolgte durch Dauerinfusion von 1µg/kg (=1,65 ml/h) i.v. Pentagastrin (V. fem. sin.) ca 30 min nach Operationsende (d.h. nach Bestimmung von 2 Vorfraktionen). […]
Structure (SMILES),"ED50 (Rattus norvegicus, iv; i.v.; interpolated dose that causes a maximal inhibition of HCl secretion by 50 %; head says 'ca.'; read-out: Maximale Hemmung der Säureausscheidung ca. ED50 +) (µmol/kg) i.v.) [µmol/kg]","Maximale Hemmung der Säureausscheidung ca. ED50 +) (µmol/kg) i.v. (i.v., interpolated dose that causes a maximal inhibition of HCl secretion by 50 %, head says 'ca.')"
"COc1ccc(C(=O)O[C@@H]2Cc3ccccc3[C@H]2Oc2cccn3c(CO)c(C)nc23)cc1 (relative stereo) [Beispiel 2, 3-Hydroxymethyl-8-[trans-2-(4-methoxybenzoyloxy)-2,3-dihydro-1-indenyloxy]-2-methyl-imidazo[1,2-a]pyridin]",~1.1,
"COCC(=O)O[C@@H]1Cc2cc(F)ccc2[C@H]1Oc1cccn2c(CO)c(C)nc12 (relative stereo) [Beispiel 5, 8-(5-Fluor-trans-2-methoxyacetoxy-2,3-dihydro-1-indenyloxy)-3-hydroxymethyl-2-methyl-imidazo[1,2-a]pyridin]",,"~0,8 µmol/kg"
